Results as given in patent publication US20260248972A1, “DUAL RECEPTOR TARGETING RADIOLIGANDS AND USES THEREOF RELATED APPLICATIONS” (priority 2022, published 2026).

Experiments:
CCK2R = target: T1, CCK2R (Rattus norvegicus, UniProt P30553); test: Competitive cell-binding assay on AR42J cells with 125I-C3 as competitive ligand; conditions: for IC50: AR42J cells, 125I-C3 competitive ligand, 37° C. 1 h, read-out: CCK2R/IC50; for Relative Binding Affinity CCK2R: based on mean IC50, C-2 = 1.00
T1 construct: host or cells: AR42J cells
T1 sequence (P30553 1-452): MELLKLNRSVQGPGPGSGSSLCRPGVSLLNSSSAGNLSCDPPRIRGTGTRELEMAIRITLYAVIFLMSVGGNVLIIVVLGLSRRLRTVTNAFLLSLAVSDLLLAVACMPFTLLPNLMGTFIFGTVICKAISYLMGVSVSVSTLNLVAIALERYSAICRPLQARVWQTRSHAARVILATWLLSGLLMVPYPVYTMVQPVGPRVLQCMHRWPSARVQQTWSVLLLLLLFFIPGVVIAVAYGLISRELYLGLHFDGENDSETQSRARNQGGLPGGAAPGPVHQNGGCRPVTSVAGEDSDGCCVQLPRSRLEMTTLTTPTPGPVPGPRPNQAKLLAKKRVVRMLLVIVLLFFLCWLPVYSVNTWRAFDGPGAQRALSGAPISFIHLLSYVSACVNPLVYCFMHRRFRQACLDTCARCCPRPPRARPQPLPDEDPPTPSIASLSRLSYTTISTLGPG
Protocol: (§1) AR42J cells (ATCC) were maintained in RPMI-1640 medium (Gibco) supplemented with 15% fetal bovine serum (Gibco) and 1% penicillin-streptomycin (BI) at 37° C. in a humidified incubator with 5% CO2. The culture medium was replaced with fresh medium every 2-3 days. Experiments were performed with cells at 70-80% confluence.
(§2) Binding Affinity Tested by Using ^125I-Labeled Competitive Ligands.
(§3) The binding affinities of test compounds were determined by a competitive cell-binding assay using ^125I-C1 and ^125I-C3 as the competitive ligand. The suspended AR42J cells at a density of 1~3×10^6 cells/mL in binding buffer (RPMI-1640 medium supplemented with 0.25% bovine serum albumin) were transferred to a MultiScreen-DV Filter Plate (Millipore) with 100 μL per well except the blank group where the binding buffer was used instead. The cells were then incubated with ^125I-C1 and ^125I-C3 (0.02 μCi/well) in the presence of increasing concentrations (0-10000 nM) of test compounds at 37° C. for 1 h (n=3). The final volume in each well was maintained at 200 μL and insufficient volume was adjusted by the binding buffer. After the 1 h incubation, unbound ^125I-competitive ligands were removed by filtration using a Multiscreen vacuum manifold (Millipore) followed by rinses with the binding buffer (3 times). The filters were collected, and their radioactivity were individually measured by γ counter (2480 WIZARD2, PerkinElmer). The best-fit IC50value (inhibitory concentration when 50% of the bound ^125I-C1 and ^125l I-C3 on cells were displaced) of test compounds were calculated by fitting the data with nonlinear regression using GraphPad Prism 8.0.1.

SSTR2 = target: T2, SSTR2 (Rattus norvegicus, UniProt P30680); test: Competitive cell-binding assay on AR42J cells with 125I-C1 as competitive ligand; conditions: for Relative Binding Affinity SSTR2: based on mean IC50, C-1 = 1.00
T2 construct: host or cells: AR42J cells
T2 sequence (P30680 whole entry): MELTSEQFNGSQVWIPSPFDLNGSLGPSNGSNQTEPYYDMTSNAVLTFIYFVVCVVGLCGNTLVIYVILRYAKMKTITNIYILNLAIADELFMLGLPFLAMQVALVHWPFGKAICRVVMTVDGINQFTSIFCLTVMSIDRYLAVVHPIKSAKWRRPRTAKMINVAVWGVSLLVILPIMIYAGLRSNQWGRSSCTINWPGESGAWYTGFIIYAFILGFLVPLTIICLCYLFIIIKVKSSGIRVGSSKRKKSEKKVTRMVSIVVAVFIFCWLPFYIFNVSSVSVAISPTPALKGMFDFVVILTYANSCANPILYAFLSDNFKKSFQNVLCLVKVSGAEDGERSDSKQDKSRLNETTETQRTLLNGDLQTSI
Protocol: as §1, §2, §3

in vivo = conditions: BALB/c nude, mouse, in vivo, iv, total radioactivity
Summary of the method: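 Tissue uptake given as % ID and % ID/g from γ counting of organs taken 4, 24 and 72 h after injection into BALB/c nude mice carrying subcutaneous AR42J xenografts (0.05-0.50 g). Tracers were ^177Lu-labelled at 95° C for 15 min in pH 4.5 NaOAc buffer and used neat or diluted in PBS containing 3 mg/mL ascorbate.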

C[C@@H](O)C(NC(=O)[C@@H]1CSSC[C@H](NC(=O)[C@@H](Cc2ccccc2)NC(=O)COCCOCCNC(=O)[C@H](CCCCNC(=O)CC[C@H](NC(=O)CNC(=O)c2cccc(NC(=O)N[C@@H]3CN(C4CCCCC4)c4ccccc4N(CC(=O)C(C)(C)C)C3=O)c2)C(=O)O)NC(=O)COCCOCCNC(=O)CCC(C(=O)O)N2CCN(CC(=O)O)CCN(CC(=O)O)CCN(CC(=O)O)CC2)C(=O)N[C@@H](Cc2ccc(O)cc2)C(=O)N[C@H](Cc2c[nH]c3ccccc23)C(=O)N[C@@H](CCCCN)C(=O)N[C@@H]([C@@H](C)O)C(=O)N1)C(=O)O (stereo in doubt) [Compound I-20, DOTAGA- OEG- K(-gE- G- Z360)- OEG- f[CYwKTC]T- OH]
IC50 (CCK2R): 1.4 nM
Relative Binding Affinity CCK2R (CCK2R): 12.1
IC50 (SSTR2; AR42J cells, 125I-C1 competitive ligand, 37° C. 1 h, read-out: SSTR2/IC50): 0.781 nM
Relative Binding Affinity SSTR2 (SSTR2): 3.60

CCCC[C@H](NC(=O)[C@H](Cc1c[nH]c2ccccc12)NC(=O)CNC(=O)[C@H](Cc1ccc(O)cc1)NC(=O)[C@H](C)NC(=O)[C@@H](CCC(=O)O)NC(=O)[C@@H](CCC(=O)O)NC(=O)[C@@H](CCC(=O)O)NC(=O)[C@@H](CCC(=O)O)NC(=O)[C@@H](CCC(=O)O)NC(=O)[C@@H](CCC(=O)O)NC(=O)CN1CCN(CC(=O)O)CCN(CC(=O)O)CCN(CC(=O)O)CC1)C(=O)N[C@@H](CC(=O)O)C(=O)N[C@@H](Cc1ccccc1)C(N)=O [Compound C-2, DOTA-e-e-e-e-e-e-AYGW-Nle-DF-NH2, reference compound]
IC50 (CCK2R): 17 nM
Relative Binding Affinity CCK2R (CCK2R): 1.00
Relative Binding Affinity SSTR2 (SSTR2): <0.001

CC(C)(C)C(=O)CN1C(=O)[C@H](NC(=O)Nc2cccc(C(=O)N[C@@H](CCC(=O)N[C@@H](CCC(=O)N[C@@H](CCC(=O)N[C@@H](CCCCNC(=O)COCCOCCNC(=O)COCCOCCNC(=O)CCC(C(=O)O)N3CCN(CC(=O)O)CCN(CC(=O)O)CCN(CC(=O)O)CC3)C(N)=O)C(=O)O)C(=O)O)C(=O)O)c2)CN(C2CCCCC2)c2ccccc21 (stereo partly drawn) [Compound C-4, Z360-gE-gE-gE-K(-OEG-OEG-DOTAGA)-NH2, reference compound]
Relative Binding Affinity CCK2R (CCK2R): 21.9

C[C@@H](O)[C@H](NC(=O)[C@@H]1CSSC[C@H](NC(=O)[C@@H](Cc2ccccc2)NC(=O)[C@H](CCCCNC(=O)[C@H](CCC(=O)O)NC(=O)c2cccc(NC(=O)N[C@@H]3CN(C4CCCCC4)c4ccccc4N(CC(=O)C(C)(C)C)C3=O)c2)NC(=O)CN2CCN(CC(=O)O)CCN(CC(=O)O)CCN(CC(=O)O)CC2)C(=O)N[C@@H](Cc2ccc(O)cc2)C(=O)N[C@H](Cc2c[nH]c3ccccc23)C(=O)N[C@@H](CCCCN)C(=O)N[C@@H]([C@@H](C)O)C(=O)N1)C(N)=O [Compound I-4, DOTA-K(-E-Z360)-f[CYwKTC]T-NH2]
Relative Binding Affinity CCK2R (CCK2R): 53.1
Relative Binding Affinity SSTR2 (SSTR2): 0.90

C[C@@H](O)[C@@H]1NC(=O)[C@H](CCCCN)NC(=O)[C@@H](Cc2c[nH]c3ccccc23)NC(=O)[C@H](Cc2ccc(O)cc2)NC(=O)[C@@H](NC(=O)[C@@H](Cc2ccccc2)NC(=O)COCCOCCNC(=O)[C@H](CCCCNC(=O)[C@H](CCC(=O)O)NC(=O)c2cccc(NC(=O)N[C@@H]3CN(C4CCCCC4)c4ccccc4N(CC(=O)C(C)(C)C)C3=O)c2)NC(=O)CN2CCN(CC(=O)O)CCN(CC(=O)O)CCN(CC(=O)O)CC2)CSSC[C@@H](C(=O)N[C@H](CO)[C@@H](C)O)NC1=O [Compound I-5, DOTA-K(-E-Z360)-OEG-f[CYwKTC]-Thr(ol)]
Relative Binding Affinity CCK2R (CCK2R): 216
Relative Binding Affinity SSTR2 (SSTR2): 0.10

C[C@@H](O)[C@@H]1NC(=O)[C@H](CCCCN)NC(=O)[C@@H](Cc2c[nH]c3ccccc23)NC(=O)[C@H](Cc2ccc(O)cc2)NC(=O)[C@@H](NC(=O)[C@@H](Cc2ccccc2)NC(=O)[C@H](CCCCNC(=O)[C@H](CCC(=O)O)NC(=O)c2cccc(NC(=O)N[C@@H]3CN(C4CCCCC4)c4ccccc4N(CC(=O)C(C)(C)C)C3=O)c2)NC(=O)CN2CCN(CC(=O)O)CCN(CC(=O)O)CCN(CC(=O)O)CC2)CSSC[C@@H](C(=O)N[C@H](CO)[C@@H](C)O)NC1=O [Compound I-6, DOTA-K(-E-Z360)-f[CYwKTC]-Thr(ol)]
Relative Binding Affinity CCK2R (CCK2R): 19.7
Relative Binding Affinity SSTR2 (SSTR2): 0.20

C[C@@H](O)[C@H](NC(=O)[C@@H]1CSSC[C@H](NC(=O)[C@@H](Cc2ccccc2)NC(=O)COCCOCCNC(=O)[C@H](CCCCNC(=O)CC[C@H](NC(=O)CNC(=O)c2cccc(NC(=O)N[C@@H]3CN(C4CCCCC4)c4ccccc4N(CC(=O)C(C)(C)C)C3=O)c2)C(=O)O)NC(=O)CC[C@H](NC(=O)CC[C@H](NC(=O)CN2CCN(CC(=O)O)CCN(CC(=O)O)CCN(CC(=O)O)CC2)C(=O)O)C(=O)O)C(=O)N[C@@H](Cc2ccc(O)cc2)C(=O)N[C@H](Cc2c[nH]c3ccccc23)C(=O)N[C@@H](CCCCN)C(=O)N[C@@H]([C@@H](C)O)C(=O)N1)C(=O)O [Compound I-10, DOTA-gE-gE-K(-gE-G-Z360)-OEG-f[CYwKTC]T-OH]
Relative Binding Affinity CCK2R (CCK2R): 275
Relative Binding Affinity SSTR2 (SSTR2): 0.78

C[C@@H](O)[C@H](NC(=O)[C@@H]1CSSC[C@H](NC(=O)[C@@H](Cc2ccccc2)NC(=O)COCCOCCNC(=O)[C@H](CCCCNC(=O)CN2CCN(CC(=O)O)CCN(CC(=O)O)CCN(CC(=O)O)CC2)NC(=O)CC[C@H](NC(=O)COCCOCCNC(=O)CC[C@H](NC(=O)[C@H](CCC(=O)O)NC(=O)c2cccc(NC(=O)N[C@@H]3CN(C4CCCCC4)c4ccccc4N(CC(=O)C(C)(C)C)C3=O)c2)C(=O)O)C(=O)O)C(=O)N[C@@H](Cc2ccc(O)cc2)C(=O)N[C@H](Cc2c[nH]c3ccccc23)C(=O)N[C@@H](CCCCN)C(=O)N[C@@H]([C@@H](C)O)C(=O)N1)C(=O)O [Compound I-12, (Z360)-E-gE-OEG-gE-K(DOTA)-OEG-f[CYwKTC]T-OH]
Relative Binding Affinity CCK2R (CCK2R): 255
Relative Binding Affinity SSTR2 (SSTR2): 0.61

C[C@@H](O)[C@H](NC(=O)[C@@H]1CSSC[C@H](NC(=O)[C@@H](Cc2ccccc2)NC(=O)COCCOCCNC(=O)[C@H](CCCCNC(=O)[C@H](CCC(=O)O)NC(=O)c2cccc(NC(=O)N[C@@H]3CN(C4CCCCC4)c4ccccc4N(CC(=O)C(C)(C)C)C3=O)c2)NC(=O)CN2CCN(CC(=O)O)CCN(CC(=O)O)CCN(CC(=O)O)CC2)C(=O)N[C@@H](Cc2ccc(O)cc2)C(=O)N[C@H](Cc2c[nH]c3ccccc23)C(=O)N[C@@H](CCCCN)C(=O)N[C@@H]([C@@H](C)O)C(=O)N1)C(=O)O [Compound I-27, DOTA-K(-E-Z360)-OEG-f[CYwKTC]T-OH]
Relative Binding Affinity SSTR2 (SSTR2): 0.51
tissue to tissue ratio at 24 h (in vivo; T/K Tumor/Kidney ratio): 1.4
tissue to tissue ratio at 24 h (in vivo; T/L Tumor/Liver ratio): 26
tissue to tissue ratio at 24 h (in vivo; T/P Tumor/Pancreas ratio): 16
tissue to tissue ratio at 24 h (in vivo; T/Sp Tumor/Spleen ratio): 64
tissue to tissue ratio at 24 h (in vivo; T/St Tumor/Stomach ratio): 6.3
tissue uptake at 24 h (in vivo; uptake Kidney): 21 %ID/g
tissue uptake at 24 h (in vivo; uptake Liver): 1.11 %ID/g
tissue uptake at 24 h (in vivo; uptake Pancreas): 1.79 %ID/g
tissue uptake at 24 h (in vivo; uptake Spleen): 0.44 %ID/g
tissue uptake at 24 h (in vivo; uptake Stomach): 4.51 %ID/g
tissue uptake at 24 h (in vivo; uptake Tumor): 28.5 %ID/g
